Experimental data: patent USRE35801E, “Prophylactic and therapeutic composition for circulatory disorders and method of treatment” (priority 1985, dated 1998)
Values joined by “and” are separate entries in the source; they are usually repeats but may differ in a detail not shown here. Identical values can stand only once.

How the values were obtained:
[1] = test system: mouse; conditions: mouse intraperitoneal administration; cited from earlier work
[2] = test system: rat; conditions: rat oral administration; cited from earlier work
[3] = test system: lipid peroxidation (brain homogenate); assay: Inhibitory action of lipid peroxidation in brain homogenate (TBA value); assay type: biochemical; conditions: inhibition of lipid peroxidation, rat brain homogenate, 37° C., 30 minutes
Description: (1) Inhibitory action of lipid peroxidation (a) Preparation of brain homogenate By use of Wister-strain male rat, brain homogenate was prepared following the procedure as described below. […] Next, a brain perfusion was conducted through the tube with ice-cooled 50 mM phosphate-buffered physiological saline (pH 7.4) hereinafter referred to as "PBS"), and the whole brain was extirpated. After removal of cerebellum, the wet weight of cerebrum was measured and, with addition of 9-fold amount of PBS, it was broken by a Teflon homogenizer in ice-water to be homogenized. After the brain homogenate was subjected to centrifugation at 4° C. at 2200 rpm for 10 minutes, 0.3 ml of the supernatant was apportioned into a light-shielding test tube equipped with a ground stopper, to provide a brain homogenate for evaluation of medicine. (b) Evaluation of test medicine To the brain homogenate produced in (a), 0.6 ml of PBS and 10 μl of ethanolic solution of a test medicine were added (to a final concentration of 500 μM or a concentration at a common ratio of 3 between 0.3 and 100 μm), and the mixture was heated in a warm bath at 37° C. for 30 minutes. […] Also, the same operation was performed by addition of 10 μl of ethanol (blank) in place of 10 μl ethanolic solution of the test medicine for measurement of blank. […] After shaking for about 30 seconds, the mixture was subjected to centrifugation at 3000 rpm for 10 minutes, and the supernatant was provided as a sample for measurement of peroxidized lipid.

[4] = National Cancer Institute Report, 1978; cited from earlier work
[5] = test system: drowsy pattern of electroencephalogram induced by phenobarbital or pentobarbital sodium salt; assay: Antagonistic action against drowsy pattern of electroencephalogram induced by phenobarbital or pentobarbital sodium salt; assay type: in vivo, Wistar-strain male rat; conditions: Rattus norvegicus; intravenous, sodium salt; drowsy EEG after PHB 30 mg/kg or PBT 5 mg/kg; read-out: Antagonistic action at dose or higher
Description: (2) Antagonistic action against drowsy pattern of so electroencephalogram induced by phenobarbital or pentobarbital sodium salt
A Wistar-strain male rat weighing about 400 g was intramasculary administered with 0.6 mg of d-tubocurarine to be immobilized and, while maintaining the rectal temperature at 37° to 38° C. under artificial respiration, the electroencephalogram of the left cerebral frontal cortex was measured and recorded. Also, within the left femoral artery and vein, cannulas for measurement of artery pressure and for administration of medicine were placed, respectively.
As the active ingredient of the present invention, sodium salt of the compound represented by Formula (I) was used and the respective doses of said active ingredient and 30 mg/kg of phenobarbital sodium salt (produced by Iwaki Seiyaku K.K.) (hereinafter called "PHB") or 5 mg/kg of pentobarbital sodium salt (hereinafter called PBT) were each dissolved in physiological saline and administered intravenously in a liquid amount of 1 ml/kg.
The action of the active ingredient of the present invention affecting the cortex electroencephalogram after PHB or PBT administration was investigated as follows; Namely, at the time of 5 minutes or later after PHB or PBT administration when increase of the slow-wave component can be clearly recognized on electroencephalogram, 1, 3, 10, 30 and 100 mg/kg of the active ingredient were administered. To the control group 1 ml/kg of physiological saline was intravenously administered.
Recording and analysis of electroencephalogram were continuously drawn together with artery pressure, heart rate and rectal temperature on the recorder through a multi-purpose monitoring recording device (model RM-85, produced by Nippon Koden K.K.). At the same time, electroencephalogram was recorded in data recorder (model A-65, produced by Sony K.K.), and compressed spectral array analysis was conducted by means of a computer for medical data processing (ATAC-450, produced by Nippon Koden K.K.).

[6] = test system: cerebral ischemia recirculation model; assay: Protective action in cerebral ischemia recirculation model; assay type: in vivo, Wistar-strain male rat; design: key to Judgement of action: The case when restoration of electroencephalogram is judged as +; case when not recognized as -; conditions: 3 mg/kg

## CC1=NN(c2ccccc2)C(=O)C1 [Compound 1, 3-methyl-1-phenyl-2-pyrazolin-5-one]
[1]
  LD50: 2012 mg/kg
[2]
  LD50: 3500 mg/kg
[3]
  IC50: 18.2 µM
[4]
  carcinogenicity: free from carcinogenicity
[5]
  minimal effective dose: ≥ 1 mg/kg
[6]; average
  Survival time after recirculation, average: 106 min
[6]; individual animal
  Judgement of action: + and -
  Survival time after recirculation: 85 min and 126 min
